Reference: patent US10905691B2, “Use of triazolo(4,5-d)pyrimidine derivatives for prevention and treatment of bacterial infection” (Universite de Liege, priority 2016, dated 2021)
Where two headings read alike, the source gives them in different places.

Columns and labels:
[1] = tested on: E. faecalis vancomycin-resistant (VRE) ATCC BAA-2365; assay: MBC and MDK99.9 determination (CFU counting); format: cell-based, Enterococcus faecalis; conditions: for MBC: Enterococcus faecalis, cut-off 99.9% reduction in CFU
Method: Further experiments were conducted using different strains of E. faecalis, as clinically relevant Gram-positive bacterial strains: E. faecalis vancomycin-resistant (VRE) ATCC BAA-2365, and E. faecalis ATCC 29212 in order to determine the Minimal Inhibitory Concentration (MIC) which is the minimal concentration required to prevent bacterial growth; the Minimal Bactericidal Concentration (MBC) which determines the lowest concentration at which an antimicrobial agent kill a particular microorganism and a Minimum Duration for killing 99.9% bacteria (MDK99.9) which is a tolerance metric according to the EUCAST.
MBC and MDK99.9 determination: A single colony selected from the different strains of E. faecalis is resuspended and cultured in the appropriate medium (TSB, or BHI) overnight (O/N) in aerobic conditions (37° C. with 220 rpm shaking), next day a 1:100 inoculum in the appropriate medium was incubated in aerobic conditions for 2 h. The culture is then challenged with triafluocyl at MIC concentration or higher concentrations. Bacterial growth was measured after different time intervals by counting the colony-forming units after plating appropriate culture dilutions on BHI agar plates. […] And the real time needed is defined as the MDK99.9. MBC for Triafluocyl against E. faecalis vancomycin-resistant (VRE) ATCC BAA-2365 was 20 μg/ml. MDK99.9 for Triafluocyl against E. faecalis vancomycin-resistant (VRE) ATCC BAA-2365 was 24 hours.
(§1) For MBC determination a 1:100 inoculum of an O/N culture (prepared like before) was incubated in aerobic conditions for 2 h in bacteria-specific medium. The culture was then challenged with Fluometacyl at the MIC concentration or higher. Bacterial growth was measured after different time intervals by counting the colony-forming units (CFU) after plating appropriate culture dilutions on bacteria-specific medium agar plates.

[2] = tested on: Staphylococcus epidermidis (ATCC 35984, also known as RP62A); assay: MBC and MDK99.9 determination; format: cell-based
Method: (§2) The Minimal Inhibitory Concentration (MIC) and the Minimal Bactericidal Concentration (MBC) of Triafluocyl were determined in Staphylococcus epidermidis (ATCC 35984, also known as RP62A) according to EUCAST (European Committee on Antimicrobial Susceptibility Testing) recommendations.
We have also determined the MBC, i.e. the concentration at which the liquid culture, when spread on TSA plates, will not produce any colony.
The Minimum Duration for killing 99.9% S. epidermidis (MDK99.9) by Triafluocyl, a tolerance metric according to the EUCAST, was 2 hours.
as §1

[3] = tested on: Escherichia coli (ATCC 8739); assay: MBC determination with polymyxin B nonapeptide (PMBN); format: cell-based; conditions: ATCC8739, in presence of 40 μg/ml PMBN, read-out: Minimal Bactericidal Concentration (MBC)
Method: The MBC represents the lowest concentration of drug required to kill the bacteria in a liquid culture.
The Minimal Bactericidal Concentration (MBC) of Triafluocyl in presence of 40 μg/ml PMBN against Escherichia coli (ATCC 8739) is equal to 5 μg/ml (FIG. 11B).
The Minimal Bactericidal Concentration (MBC) of Fluometacyl in presence of 40 μg/ml PMBN against Escherichia coli (ATCC 8739) is equal to 5 μg/ml (FIG. 12B).

[4] = tested on: Staphylococcus epidermidis (ATCC 35984, also known as RP62A); assay: MIC determination (EUCAST, Mueller-Hinton broth); format: cell-based
Method: as §2
Briefly, a single colony grown on a Tryptic Soy Agar (TSA) plate was resuspended and cultured in Tryptic Soy Broth (TSB) overnight (O/N) in aerobic conditions (37° C. with 220 rpm shaking), next day a 1:50 inoculum in Mueller-Hinton broth (MHB) was incubated in aerobic conditions for 3 hr and an inoculum of 1:100 dilution, corresponding to 3×10^5 CFU/ml, was incubated in presence or absence of different concentrations of Triafluocyl in 1% DMSO (vehicle). After O/N growth the OD of each culture was measured at 600 nm in a spectrophotometer (OD600). The MIC represents the concentration at which there is no visible growth of bacteria, i.e. ΔOD at 600 nm equal to zero (blank is the medium alone).
The Minimal Inhibitory Concentration (MIC) and the Minimal Bactericidal Concentration (MBC) of Fluometacyl were determined on several gram-positive strains (Table 2) following EUCAST (European Committee on Antimicrobial susceptibility Testing) recommendations.
For MIC determination a single colony was resuspended and cultured in the appropriate bacteria-specific medium (TSB: Tryptic Soy Broth for S. aureus atcc 25904 and S. epidermidis and BHI: brain-heart infusion medium for all the other strains) overnight (O/N) in aerobic conditions (37° C. with 220 rpm shaking), next day a 1:100 inoculum was incubated in Mueller-Hinton broth (MHB) in aerobic conditions for 3 hr (OD600=0.08-0.1). A further inoculum, 1:300 dilution of the MHB culture, corresponding to 3×10^5 CFU/ml, was grown in presence or absence of different concentrations of Fluometacyl, 1% DMSO in MHB for 20 hr.

[5] = Staphylococcus epidermidis, ATCC35984, S. epidermidis, read-out: MIC

Question: How did the “MDK 99.9 Time (h) needed to kill 99.9% of the started inoculum” value [1] turn out when CCCSc1nc(N[C@@H]2C[C@H]2c2ccc(F)c(F)c2)c2nnn([C@@H]3C[C@H](OCCO)[C@@H](O)[C@H]3O)c2n1 [Triafluocyl, (1S,2S,3R,5S)-3-[7-[(1R,2S)-2-(3,4-difluorophenyl)cyclopropylamino]-5-(propylthio)-3H-[1,2,3]-triazolo[4,5-d]pyrimidin-3-yl]-5-(2-hydroxyethoxy)-1,2-cyclopentanediol] was run?
Answer: 24 h

Question: And the MBC [1]?
Answer: 20 µg/mL

Question: And the MBC ([2]; S. epidermidis)?
Answer: 20 µg/mL

Question: What about the “MDK 99.9 Time (h) needed to kill 99.9% of the started inoculum” value ([2]; S. epidermidis) of the same molecule?
Answer: 2 h

Question: What about the MBC ([2]; Staphylococcus epidermidis, ATCC35984, S. epidermidis, read-out: MBC) of the same molecule?
Answer: 17 ± 3 µg/mL

Question: What about the MBC [3] of the same molecule?
Answer: 5 µg/mL

Question: And the MIC ([4]; S. epidermidis)?
Answer: 15 µg/mL

Question: And the MIC [4, 5]?
Answer: 12 ± 3 µg/mL

Question: Which results are given for CCCSc1nc(N[C@@H]2C[C@H]2c2ccc(F)c(F)c2)c2nnn([C@@H]3C[C@H](O)[C@@H](O)[C@H]3O)c2n1 [Fluometacyl, (1S,2R,3S,4R)-4-[7-[[(1R,2S)-2-(3,4-Difluorophenyl)cyclopropyl]amino]-5-(propylthio)-3H-1,2,3-triazolo[4,5-d]pyrimidin-3-yl]-1,2,3-cyclopentanetriol]?
Answer: MBC [1]: 38 µM; MBC ([2]; Staphylococcus epidermidis, ATCC35984, S. epidermidis, cut-off 99.9% reduction in CFU, read-out: MBC): 38 µM; MBC [3]: 5 µg/mL; MIC [4, 5]: 30 µM
